Counter-ions that a name gives are not always drawn. Like-named read-outs stand apart in the source and are kept apart here.
Assays:
[1] = Hygroscopicity of crystal forms of salts (DVS, 25° C.); type: physicochemical; settings: for Crystal form after DVS: 0% to 95% RH
Text: According to the description of hygroscopic characteristics and the definition of hygroscopic weight gain in “9103 Guidelines for Hygroscopicity of Pharmaceuticals”, Chinese Pharmacopoeia, Volume IV, 2015 edition, the following are defined: • deliquescent: absorbing enough water to form a liquid; • extremely hygroscopic: having a hygroscopic weight gain of not less than 15%; • hygroscopic: having a hygroscopic weight gain of less than 15% and not less than 2%; • slightly hygroscopic: having a hygroscopic weight gain of less than 2% and not less than 0.2%; and • no or almost no hygroscopicity: having a hygroscopic weight gain of less than 0.2%.
Surface Measurement Systems intrinsic DVS was used at 25° C. The observed humidity ranged from 0% to 95%. The step was 10%. The criterion was that the mass change dM/dT for each step was less than 0.002%. TMAX was 360 min. Two cycles were carried out.

[2] = Stability of crystal forms of salts under influencing factors (illumination, high temperature, high humidity); type: physicochemical
Text: The sampling and investigation period was 30 days.

[3] = type: physicochemical
Method: A salt-type sample was sealed with an aluminum foil bag and placed under the conditions of 25° C./60% RH and 40° C./75% RH, respectively, to investigate the stability.

[4] = Illumination (4500 Lux), 7 days, open
[5] = Illumination (4500 Lux), 14 days, open
[6] = Illumination (4500 Lux), 30 days, open
[7] = 25° C./60% RH, sealed aluminum foil bag
[8] = 40° C./75% RH, sealed aluminum foil bag

In the case of `O=C(O)c1ccc2nc(CN3CCC(c4cccc5c4O[C@@H](c4ccc(Cl)cc4F)CO5)CC3)n(C[C@@H]3CCO3)c2c1` [Crystal form D of tromethamine salt, 2-((4-((S)-3-(4-chloro-2-fluorophenyl)-2,3-dihydrobenzo[b][1,4]dioxan-5-yl)piperidin-1-yl)methyl)-1-(((S)-oxetan-2-yl)methyl)-1H-benzo[d]imidazole-6-carboxylic acid], the “hygroscopic weight gain 0.0% RH to 80.0% RH” value [1] is reported as 2.45%, the “Crystal form after DVS” value [1] is reported as “Unchanged” and the “% Purity” value ([2]; 40° C., 7 days, open) is reported as 99.5%. For the same compound, the Crystal form ([2]; 40° C., 7 days, open) was “Unchanged”, the “% Purity” value ([2]; 40° C., 14 days, open) was 99.3% and the Crystal form ([2]; 40° C., 14 days, open) was “Unchanged”. The “% Purity” value ([2]; 40° C., 30 days, open) was 99.3%, the Crystal form ([2]; 40° C., 30 days, open) was “Unchanged” and the “% Purity” value ([2]; 60° C., 7 days, open) was 99.4%. The Crystal form ([2]; 60° C., 7 days, open) was “Unchanged”, the “% Purity” value ([2]; 60° C., 14 days, open) was 99.1% and the Crystal form ([2]; 60° C., 14 days, open) was “Unchanged”. For the same compound, the “% Purity” value ([2]; 60° C., 30 days, open) was 99.0%, the Crystal form ([2]; 60° C., 30 days, open) was “Unchanged” and the “% Purity” value ([2]; 75% RH, 7 days, open) was 99.7%. The Crystal form ([2]; 75% RH, 7 days, open) was “Unchanged”, the “% Purity” value ([2]; 75% RH, 14 days, open) was 99.6% and the Crystal form ([2]; 75% RH, 14 days, open) was “Unchanged”. The “% Purity” value ([2]; 75% RH, 30 days, open) was 99.6%, the Crystal form ([2]; 75% RH, 30 days, open) was “Unchanged” and the “% Purity” value ([2]; 92.5% RH, 7 days, open) was 99.5%. For the same compound, the Crystal form ([2]; 92.5% RH, 7 days, open) was “Unchanged”, the “% Purity” value ([2]; 92.5% RH, 14 days, open) was 99.4% and the Crystal form ([2]; 92.5% RH, 14 days, open) was “Unchanged”. The “% Purity” value ([2]; 92.5% RH, 30 days, open) was 99.0%, the Crystal form ([2]; 92.5% RH, 30 days, open) was “Unchanged” and the “% Purity” value [2, 4] was 99.6%. The Crystal form [2, 4] was “Unchanged”, the “% Purity” value [2, 5] was 99.6% and the Crystal form [2, 5] was “Unchanged”. For the same compound, the “% Purity” value [2, 6] was 99.6%, the Crystal form [2, 6] was “Unchanged” and the “% Purity” value ([2]; Initial condition, 0 days) was 99.7%. For the same compound, the “physical and chemical stability” value [3] was “good physical and chemical stability”, the “% Purity” value ([3]; 25° C./60% RH, 1 month, sealed aluminum foil bag) was 99.7% and the “% Purity” value ([3]; 25° C./60% RH, 3 months, sealed aluminum foil bag) was 99.7%. For the same compound, the Crystal form [3, 7] was “Unchanged”, the “% Purity” value ([3]; 40° C./75% RH, 1 month, sealed aluminum foil bag) was 99.5% and the “% Purity” value ([3]; 40° C./75% RH, 3 months, sealed aluminum foil bag) was 99.1%. For the same compound, the Crystal form [3, 8] was “Unchanged” and the “% Purity” value ([3]; Initial condition) was 99.7%.
In the case of `O=C(O)c1ccc2nc(CN3CCC(c4cccc5c4O[C@@H](c4ccc(Cl)cc4F)CO5)CC3)n(C[C@@H]3CCO3)c2c1` [Crystal form A of tromethamine salt, 2-((4-((S)-3-(4-chloro-2-fluorophenyl)-2,3-dihydrobenzo[b][1,4]dioxan-5-yl)piperidin-1-yl)methyl)-1-(((S)-oxetan-2-yl)methyl)-1H-benzo[d]imidazole-6-carboxylic acid], the “hygroscopic weight gain 0.0% RH to 80.0% RH” value [1] is reported as 5.02%, the “Crystal form after DVS” value [1] is reported as “Unchanged” and the chemical stability [2] is reported as “slightly poor chemical stability”. For the same compound, the “% Purity” value ([2]; 40° C., 7 days, open) was 96.1%, the Crystal form ([2]; 40° C., 7 days, open) was “Unchanged” and the “% Purity” value ([2]; 40° C., 14 days, open) was 91.7%. For the same compound, the Crystal form ([2]; 40° C., 14 days, open) was “Unchanged”, the “% Purity” value ([2]; 40° C., 30 days, open) was 87.4% and the Crystal form ([2]; 40° C., 30 days, open) was “Unchanged”. The “% Purity” value ([2]; 60° C., 7 days, open) was 93.5%, the Crystal form ([2]; 60° C., 7 days, open) was “Unchanged” and the “% Purity” value ([2]; 60° C., 14 days, open) was 88.6%. The Crystal form ([2]; 60° C., 14 days, open) was “Unchanged”, the “% Purity” value ([2]; 75% RH, 7 days, open) was 99.4% and the Crystal form ([2]; 75% RH, 7 days, open) was “Unchanged”. The “% Purity” value ([2]; 75% RH, 14 days, open) was 99.4%, the Crystal form ([2]; 75% RH, 14 days, open) was “Unchanged” and the “% Purity” value ([2]; 75% RH, 30 days, open) was 99.3%. The Crystal form ([2]; 75% RH, 30 days, open) was “Unchanged”, the “% Purity” value ([2]; 92.5% RH, 7 days, open) was 99.3% and the Crystal form ([2]; 92.5% RH, 7 days, open) was “Unchanged”. The “% Purity” value ([2]; 92.5% RH, 14 days, open) was 99.0%, the Crystal form ([2]; 92.5% RH, 14 days, open) was “Unchanged” and the “% Purity” value ([2]; 92.5% RH, 30 days, open) was 98.6%. For the same compound, the Crystal form ([2]; 92.5% RH, 30 days, open) was “Unchanged”, the “% Purity” value [2, 4] was 98.9% and the Crystal form [2, 4] was “Unchanged”. For the same compound, the “% Purity” value [2, 5] was 97.6%, the Crystal form [2, 5] was “Unchanged” and the “% Purity” value [2, 6] was 90.8%. For the same compound, the Crystal form [2, 6] was “Unchanged”, the “% Purity” value ([2]; Initial condition, 0 days) was 99.5% and the “physical and chemical stability” value [3] was “good physical and chemical stability”. For the same compound, the Crystal form [3, 7] was “Unchanged” and the Crystal form [3, 8] was “Unchanged”.
